Results published in PubChem BioAssay AID493251 (Sanford-Burnham Center for Chemical Genomics, 2011).
Where “and” joins values, the source holds several entries; their conditions need not be identical. Equal values may be shown once.

Tested on: HEK293T NF-kB-Luc cytotoxicity, resazurin fluorescence, 14 h;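 active = compounds toxic to HEK293 cells with IC50 at or below 20 µM; inactive = the rest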
Assay: HEK293T cell viability loss, resazurin readout – resazurin fluorescence, cytotoxicity control for NF-kB activator project, SAR follow-up (AID 493251)

CCCC(=O)NC(c1ccc(OC)cc1)c1ccc2cccnc2c1O (stereo unspecified)
IC50: 15.8 µM and > 33.2 µM (inactive)
